This is an account of results in patent US10487093B2, “Heterocyclic compounds, in particular 2-oxo-4,4,5,5,6,6,7,7-octahydrobenzoxazole derivatives, and their use as antibacterial compounds” (priority 2016, dated 2019).

Converted amounts (≈) assume the structure as drawn.

For assay [1], the system named is Acinetobacter baumannii NCTC 13420. Nature of the assay: MIC, broth microdilution (CLSI) versus planktonic bacteria. Type of assay: cell-based. The note with it: NCTC13420; Acinetobacter baumannii NCTC 13420; 16-20 h; mode of three independent experiments; read-out: MIC, Ab NCTC 13420.
In assay [2] the test system is Acinetobacter baumannii ATCC 19606. The description is as above. Type of assay: cell-based. The note with it: ATCC19606; Acinetobacter baumannii ATCC 19606; 16-20 h; mode of three independent experiments; read-out: MIC, Ab ATCC 19606.
Assay [3] concerns Enterobacter cloacae NCTC 13406. The assay is described as above. Type of assay: cell-based. The note with it: NCTC13406; Enterobacter cloacae NCTC 13406; 16-20 h; mode of three independent experiments; read-out: MIC, Ecl NCTC 13406.
Assay [4] concerns Escherichia coli ATCC 25922. The description is as above. Type of assay: cell-based. The note with it: ATCC25922; Escherichia coli ATCC 25922; 16-20 h; mode of three independent experiments; read-out: MIC, Ec ATCC 25922.
Another assay has as its system E. coli ATCC BAA-2452. The assay is described as above. Type of assay: cell-based. The note with it: Escherichia coli ATCC BAA-2452; 16-20 h; mode of three independent experiments; read-out: MIC, Ec ATCC BAA 2452.
A further assay relates to E. coli NCTC 13476. Described as above. Format: cell-based. The note with it: NCTC13476; Escherichia coli NCTC 13476; 16-20 h; mode of three independent experiments; read-out: MIC, Ec NCTC 13476.
Another assay has as its system E. coli MG1655. The description is as above. Type of assay: cell-based, Escherichia coli. The note with it: Escherichia coli, MG1655, read-out: MIC, Ec MG1655 WT.
Assay [5] has as its system Haemophilus influenzae ATCC 49247. The assay is described as above. Type of assay: cell-based. The note with it: ATCC49247; Haemophilus influenzae ATCC 49247; 16-20 h; mode of three independent experiments; read-out: MIC, Hi ATCC 49247.
For assay [6], the system named is Pseudomonas aeruginosa ATCC 27853. The assay is described as above. Format: cell-based. The note with it: ATCC27853; Pseudomonas aeruginosa ATCC 27853; 16-20 h; mode of three independent experiments; read-out: MIC, Pa ATCC 27853.
Assay [7] has as its system Staphylococcus aureus ATCC 29213. The assay is described as above. The note with it: ATCC29213; Staphylococcus aureus ATCC 29213; 16-20 h; mode of three independent experiments; read-out: MIC, Sa ATCC 29213. Type of assay: cell-based.
In assay [8] the test system is Streptococcus pneumoniae ATCC 49619. Described as above. Format: cell-based. The note with it: ATCC49619; Streptococcus pneumoniae ATCC 49619; 16-20 h; mode of three independent experiments; read-out: MIC, Sp ATCC 49619.
Another assay deals with E. coli MG1655 S83L. Type of assay: cell-based, Escherichia coli. The note with it: compared to the isogenic parent strain E. coli MG1655; S83L mutation on DNA gyrase subunit GyrA.
For another assay, the system named is E. coli MG1655 D87G. Format: cell-based, Escherichia coli. The note with it: compared to the isogenic parent strain E. coli MG1655; D87G mutation on DNA gyrase subunit GyrA.
In assay [9] the test system is human hepatic cell line (HepG2 ATCC HB-8065). Description: Human cell viability assay (CellTiter-Glo). The note with it: Homo sapiens, HepG2, 24 h, read-out: IC50 (μg/mL) HepG2.

As to `O=C1COc2ccc(N3C(=O)O[C@@H]4C[C@@H](NCCn5c(=O)cnc6cc(F)c(F)cc65)CC[C@@H]43)nc2N1` [Compound 22, 1-(2-{[(3aS,6S,7aR)-2-oxo-3-{3-oxo-2H,3H,4H-pyrido[3,2-b][1,4]oxazin-6-yl}-octahydro-1,3-benzoxazol-6-yl]amino}ethyl)-6,7-difluoro-1,2-dihydroquinoxalin-2-one], the MIC (in assay [1]; in [2]; in assay [3]; in assay [4]; in the assay on E. coli ATCC BAA-2452; in the assay with E. coli NCTC 13476) was less than 1 µg/mL each time. The MIC with E. coli MG1655 is less than 1 µg/mL; in assay [5], less than 1 µg/mL; in assay [6] it was 1 to 10 µg/mL (≈ 1.95 to 19.5 µM); in assay [7] it was less than 1 µg/mL; in assay [8] it was less than 1 µg/mL. In the assay with E. coli MG1655 S83L, the “Fold increase in MIC, E. coli MG1655 S83L” value is given as 2 fold. Besides, the “Fold increase in MIC, E. coli MG1655 D87G” value with E. coli MG1655 D87G is listed as 2 fold.
For `N#Cc1cnc2ccc(=O)n(CCN[C@H]3CC[C@H]4[C@H](C3)OC(=O)N4c3ccc4c(n3)NC(=O)CO4)c2c1` [Compound 55, 5-(2-{[(3aS,6S,7aS)-2-oxo-3-{3-oxo-2H,3H,4H-pyrido[3,2-b][1,4]oxazin-6-yl}-octahydro-1,3-benzoxazol-6-yl]amino}ethyl)-6-oxo-5,6-dihydro-1,5-naphthyridine-3-carbonitrile], the MIC (in [1]; in [2]; in [3]; in assay [4]; with E. coli ATCC BAA-2452; in the assay with E. coli NCTC 13476) was less than 1 µg/mL throughout. For the same molecule, the MIC (in the assay with E. coli MG1655; in [5]; in [7]; in assay [8]) was less than 1 µg/mL in each case. In the assay with E. coli MG1655 S83L, the “Fold increase in MIC, E. coli MG1655 S83L” value is 1 fold. Further, the “Fold increase in MIC, E. coli MG1655 D87G” value with E. coli MG1655 D87G is recorded as 1 fold. Moreover, in assay [9], the IC50 was greater than 100 µg/mL.
Regarding `N#Cc1cccc(-c2cccc(CN[C@H]3CC[C@H]4[C@H](C3)OC(=O)N4c3ccc4c(n3)NC(=O)CO4)c2)n1` [Compound 57, 6-[3-({[(3aS,6S,7aS)-2-oxo-3-{3-oxo-2H,3H,4H-pyrido[3,2-b][1,4]oxazin-6-yl}-octahydro-1,3-benzoxazol-6-yl]amino}methyl)phenyl]pyridine-2-carbonitrile], the MIC was less than 1 µg/mL in [1]; less than 1 µg/mL in assay [2]; 1 to 10 µg/mL (≈ 2.01 to 20.1 µM) in assay [3]; less than 1 µg/mL in assay [4]; 1 to 10 µg/mL (≈ 2.01 to 20.1 µM) in the assay with E. coli ATCC BAA-2452; 1 to 10 µg/mL (≈ 2.01 to 20.1 µM) in the assay with E. coli NCTC 13476. In addition, the MIC (in the assay on E. coli MG1655; in assay [5]; in assay [7]; in assay [8]) was less than 1 µg/mL in each case. Moreover, in the assay on E. coli MG1655 S83L, the “Fold increase in MIC, E. coli MG1655 S83L” value was found to be 1 fold. Moreover, the “Fold increase in MIC, E. coli MG1655 D87G” value with E. coli MG1655 D87G stood at 1 fold.
Regarding `COc1cc2c(ccc(=O)n2CCN[C@H]2CC[C@H]3[C@H](C2)OC(=O)N3c2ccc3c(n2)NC(=O)CO3)cn1` [Compound 62, 1-(2-{[(3aS,6S,7aS)-2-oxo-3-{3-oxo-2H,3H,4H-pyrido[3,2-b][1,4]oxazin-6-yl}-octahydro-1,3-benzoxazol-6-yl]amino}ethyl)-7-methoxy-1,2-dihydro-1,6-naphthyridin-2-one], the MIC in [1] is less than 1 µg/mL; in assay [2] it was 1 to 10 µg/mL (≈ 1.97 to 19.7 µM); in assay [4], less than 1 µg/mL; with E. coli ATCC BAA-2452, 1 to 10 µg/mL (≈ 1.97 to 19.7 µM); with E. coli NCTC 13476, 1 to 10 µg/mL (≈ 1.97 to 19.7 µM); in the assay with E. coli MG1655 it was 1 to 10 µg/mL (≈ 1.97 to 19.7 µM). Also, the MIC in [5] is 1 to 10 µg/mL (≈ 1.97 to 19.7 µM); in assay [6], 10 to 100 µg/mL (≈ 19.7 to 197 µM); in assay [7], less than 1 µg/mL; in [8] it was less than 1 µg/mL. Moreover, the “Fold increase in MIC, E. coli MG1655 S83L” value in the assay on E. coli MG1655 S83L is 1 fold. In addition, the “Fold increase in MIC, E. coli MG1655 D87G” value in the assay with E. coli MG1655 D87G is given as 0.5 fold.
Take `O=C1COc2ccc(N3C(=O)O[C@@H]4C[C@H](NCCn5c(=O)cnc6cc(F)c(F)cc65)CC[C@H]43)nc2N1` [Compound 70, 1-(2-{[(3aR,6R,7aR)-2-oxo-3-{3-oxo-2H,3H,4H-pyrido[3,2-b][1,4]oxazin-6-yl}-octahydro-1,3-benzoxazol-6-yl]amino}ethyl)-6,7-difluoro-1,2-dihydroquinoxalin-2-one]: the MIC (in assay [1]; in assay [3]; in assay [4]; with E. coli ATCC BAA-2452; with E. coli NCTC 13476; in the assay with E. coli MG1655) was less than 1 µg/mL each time. Moreover, the MIC in assay [5], in [6], in [7] and in [8] was less than 1 µg/mL throughout. In addition, in the assay with E. coli MG1655 S83L, the “Fold increase in MIC, E. coli MG1655 S83L” value is reported as 2 fold. Further, the “Fold increase in MIC, E. coli MG1655 D87G” value in the assay with E. coli MG1655 D87G is reported as 4 fold. Besides, in assay [9], the IC50 is 10 to 100 µg/mL (≈ 19.5 to 195 µM).
Consider `O=C1COc2ccc(N3C(=O)O[C@H]4C[C@@H](NCCn5c(=O)ccc6ncc(OC(F)F)cc65)CC[C@@H]43)nc2N1` [Compound 98, 1-(2-{[(3aS,6S,7aS)-2-oxo-3-{3-oxo-2H,3H,4H-pyrido[3,2-b][1,4]oxazin-6-yl}-octahydro-1,3-benzoxazol-6-yl]amino}ethyl)-7-(difluoromethoxy)-1,2-dihydro-1,5-naphthyridin-2-one], for which the MIC in [1] is less than 1 µg/mL; in assay [2], less than 1 µg/mL; in assay [3] it was 1 to 10 µg/mL (≈ 1.84 to 18.4 µM); in [4], less than 1 µg/mL; with E. coli ATCC BAA-2452, less than 1 µg/mL; in the assay on E. coli NCTC 13476, 1 to 10 µg/mL (≈ 1.84 to 18.4 µM). For the same molecule, the MIC in the assay on E. coli MG1655 is less than 1 µg/mL; in assay [5], less than 1 µg/mL; in assay [6] it was 1 to 10 µg/mL (≈ 1.84 to 18.4 µM); in assay [7] it was less than 1 µg/mL. Moreover, in the assay on E. coli MG1655 S83L, the “Fold increase in MIC, E. coli MG1655 S83L” value was 1 fold. Further, the “Fold increase in MIC, E. coli MG1655 D87G” value with E. coli MG1655 D87G is 1 fold. Also, the IC50 in assay [9] is greater than 100 µg/mL.
In the case of `O=C1COc2ccc(N3C(=O)O[C@H]4C[C@@H](NCCn5c(=O)ccc6ccc(OC(F)F)cc65)CC[C@@H]43)nc2N1` [Compound 101, 1-(2-{[(3aS,6S,7aS)-2-oxo-3-{3-oxo-2H,3H,4H-pyrido[3,2-b][1,4]oxazin-6-yl}-octahydro-1,3-benzoxazol-6-yl]amino}ethyl)-7-(difluoromethoxy)-1,2-dihydro quinolin-2-one], the MIC in assay [1] was less than 1 µg/mL; in assay [2], less than 1 µg/mL; in [3] it was 1 to 10 µg/mL (≈ 1.85 to 18.5 µM); in [4] it was less than 1 µg/mL; with E. coli ATCC BAA-2452, less than 1 µg/mL; with E. coli NCTC 13476 it was less than 1 µg/mL. Besides, the MIC in the assay on E. coli MG1655 was less than 1 µg/mL; in assay [6], 1 to 10 µg/mL (≈ 1.85 to 18.5 µM); in assay [7], less than 1 µg/mL; in [8], less than 1 µg/mL. The “Fold increase in MIC, E. coli MG1655 S83L” value in the assay on E. coli MG1655 S83L turned out to be 1 fold. In the assay on E. coli MG1655 D87G, the “Fold increase in MIC, E. coli MG1655 D87G” value came out at 1 fold. Moreover, the IC50 in [9] was in the range of 10 to 100 µg/mL (≈ 18.5 to 185 µM).
Regarding `N#Cc1cccc(-c2cccc(CN[C@H]3CC[C@H]4[C@H](C3)OC(=O)N4c3ccc4c(n3)NC(=O)CO4)n2)c1` [Compound 105, 3-[6-({[(3aS,6S,7aS)-2-oxo-3-{3-oxo-2H,3H,4H-pyrido[3,2-b][1,4]oxazin-6-yl}-octahydro-1,3-benzoxazol-6-yl]amino}methyl)pyridin-2-yl]benzonitrile], the MIC is less than 1 µg/mL in assay [1]; less than 1 µg/mL in [2]; 1 to 10 µg/mL (≈ 2.01 to 20.1 µM) in [3]; less than 1 µg/mL in [4]; less than 1 µg/mL with E. coli ATCC BAA-2452; 1 to 10 µg/mL (≈ 2.01 to 20.1 µM) in the assay on E. coli NCTC 13476. Also, the MIC in the assay with E. coli MG1655 is less than 1 µg/mL; in assay [5], less than 1 µg/mL; in [6] it was 1 to 10 µg/mL (≈ 2.01 to 20.1 µM); in assay [7], less than 1 µg/mL. Besides, in the assay with E. coli MG1655 S83L, the “Fold increase in MIC, E. coli MG1655 S83L” value is on record as 1 fold. Also, in the assay with E. coli MG1655 D87G, the “Fold increase in MIC, E. coli MG1655 D87G” value was 1 fold. Further, in assay [9], the IC50 was 10 to 100 µg/mL (≈ 20.1 to 201 µM).
